# According to US20240279215A1 (Cytokinetics, Incorporated, priority 2022, published 2024):
# Target: human NAMPT (Homo sapiens (Human), UniProt P43490)
# Test: NMN fluorescence biochemical assay (human recombinant NAMPT enzyme assay)
# How it was run: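 NMN formed was detected by fluorescence (Ex/Em 355/460 nm) after acetophenone, KOH and formic acid derivatization. The cell-free reaction ran 60 min at ambient temperature with 6 nM human NAMPT, 150 μM nicotinamide, 20 μM PRPP, 2.5 mM ATP, pH 7.2 HEPES, and compound dose responses.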
# human NAMPT, sequence (P43490 whole entry): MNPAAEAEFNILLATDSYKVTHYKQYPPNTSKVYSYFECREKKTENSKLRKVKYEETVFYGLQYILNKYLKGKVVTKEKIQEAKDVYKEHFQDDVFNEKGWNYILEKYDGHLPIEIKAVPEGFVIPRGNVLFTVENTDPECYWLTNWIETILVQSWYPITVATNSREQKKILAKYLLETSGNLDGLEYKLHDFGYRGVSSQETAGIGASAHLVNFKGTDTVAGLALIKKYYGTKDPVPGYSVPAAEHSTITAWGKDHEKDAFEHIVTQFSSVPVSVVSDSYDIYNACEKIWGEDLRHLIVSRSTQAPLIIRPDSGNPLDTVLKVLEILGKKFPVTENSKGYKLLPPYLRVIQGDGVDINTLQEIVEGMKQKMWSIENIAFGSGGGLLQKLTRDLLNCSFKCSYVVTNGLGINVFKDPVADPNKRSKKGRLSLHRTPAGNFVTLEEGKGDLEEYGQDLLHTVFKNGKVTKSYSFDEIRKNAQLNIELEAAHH
Compound,AC1.4 Human,EC50
"Cc1ncoc1C(=O)N[C@@H](C)c1ccc(NC(=O)OCc2ccc(Cl)cc2)cc1 [Compound 152, (4-chlorophenyl)methyl N-{4-[(1S)-1-[(4-methyl-1,3-oxazol-5-yl)formamido]ethyl]phenyl}carbamate]",1.27 µM,10.6 µM
"O=C(Nc1ccc(Cc2ccncc2)cc1)OCc1cnco1 [Compound 153, oxazol-5-ylmethyl (4-(pyridin-4-ylmethyl)phenyl)carbamate]",1.27 µM,33.8 µM
"C[C@H](NC(=O)N1CCOCC1)c1ccc(NC(=O)OCc2ccc(Cl)cc2)cc1 [Compound 154, 4-chlorobenzyl (S)-(4-(1-(morpholine-4-carboxamido)ethyl)phenyl)carbamate]",1.30 µM,12 µM
"Cc1coc(C(=O)N(C)Cc2ccc(NC(=O)OCc3ccc(Cl)cc3)cc2)n1 [Compound 155, (4-chlorophenyl)methyl N-(4-{[N-methyl-1-(4-methyl-1,3-oxazol-2-yl)formamido]methyl}phenyl)carbamate]",1.31 µM,5.8 µM
"COC(=O)N1CCN(C(=O)Cc2ccc(NC(=O)OCc3ccc(Cl)cc3)cc2)CC1 [Compound 156, methyl 4-(2-(4-((((4-chlorobenzyl)oxy)carbonyl)amino)phenyl)acetyl)piperazine-1-carboxylate]",1.31 µM,9.45 µM
"Cc1ncc(C(=O)NCc2ccc(NC(=O)OCc3ccc(Cl)cc3)cc2)o1 [Compound 157, (4-chlorophenyl)methyl N-(4-{[(2-methyl-1,3-oxazol-5-yl)formamido]methyl}phenyl)carbamate]",1.32 µM,9.11 µM
"COc1ccc(C(=O)NCc2ccc(NC(=O)OCc3ccc(Cl)cc3)cc2)cn1 [Compound 158, (4-chlorophenyl)methyl N-(4-{[(6-methoxypyridin-3-yl)formamido]methyl}phenyl)carbamate]",1.32 µM,1.27 µM
"C[C@H](NC(=O)c1cncc(F)c1)c1ccc(NC(=O)OCc2ccc(Cl)cc2)cc1 [Compound 159, (4-chlorophenyl)methyl N-{4-[(1S)-1-[(5-fluoropyridin-3-yl)formamido]ethyl]phenyl}carbamate]",1.33 µM,4.3 µM
"Cc1cc(C(=O)N(C)Cc2ccc(NC(=O)OCc3ccc(Cl)cc3)cc2)on1 [Compound 160, (4-chlorophenyl)methyl N-(4-{[N-methyl-1-(3-methyl-1,2-oxazol-5-yl)formamido]methyl}phenyl)carbamate]",1.33 µM,5.32 µM
"CO[C@H]1CCCN(C(=O)Cc2ccc(NC(=O)OCc3ccc(Cl)cc3)cc2)C1 [Compound 161, 4-chlorobenzyl (S)-(4-(2-(3-methoxypiperidin-1-yl)-2-oxoethyl)phenyl)carbamate]",1.33 µM,10.1 µM
"COc1ncc(C(=O)NCc2ccc(NC(=O)OCc3ccc(Cl)cc3)cc2)cn1 [Compound 162, (4-chlorophenyl)methyl N-(4-{[(2-methoxypyrimidin-5-yl)formamido]methyl}phenyl)carbamate]",1.36 µM,4.5 µM
"CC(C)c1ccc(C(=O)N[C@@H](C)c2ccc(NC(=O)OCc3ccc(Cl)cc3)cc2)cn1 [Compound 163, (4-chlorophenyl)methyl N-{4-[(1S)-1-[(6-isopropylpyridin-3-yl)formamido]ethyl]phenyl}carbamate]",1.37 µM,0.68 µM
"C[C@H](NC(=O)c1ccc(C(F)F)nc1)c1ccc(NC(=O)OCc2ccc(Cl)cc2)cc1 [Compound 164, (4-chlorophenyl)methyl N-{4-[(1S)-1-{[6-(difluoromethyl)pyridin-3-yl]formamido}ethyl]phenyl}carbamate]",1.38 µM,1.6 µM
Cc1cc(C)c(C(=O)NCc2ccc(NC(=O)OCc3ccc(Cl)cc3)cc2)cn1 [Compound 165],1.38 µM,7.53 µM
"COCCn1nccc1C(=O)NCc1ccc(NC(=O)OCc2ccc(Cl)cc2)cc1 [Compound 166, (4-chlorophenyl)methyl N-[4-({[2-(2-methoxyethyl)pyrazol-3-yl]formamido}methyl)phenyl]carbamate]",1.38 µM,5.87 µM
"CCn1nccc1C(=O)NCc1ccc(NC(=O)OCc2ccc(Cl)cc2)cc1 [Compound 167, (4-chlorophenyl)methyl N-(4-{[(2-ethylpyrazol-3-yl)formamido]methyl}phenyl)carbamate]",1.39 µM,4.54 µM
"COc1ccc(COC(=O)Nc2ccc(CN3CCN(C)CC3=O)cc2)cc1 [Compound 168, (4-methoxyphenyl)methyl N-{4-[(4-methyl-2-oxopiperazin-1-yl)methyl]phenyl}carbamate]",1.40 µM,13.9 µM
"O=C(Nc1ccc(Cc2ccncc2)cc1)OCc1ccncc1 [Compound 169, pyridin-4-ylmethyl (4-(pyridin-4-ylmethyl)phenyl)carbamate]",1.41 µM,6.11 µM
"COC1CN(C(=O)N[C@@H](C)c2ccc(NC(=O)OCc3ccc(Cl)cc3)cc2)C1 [Compound 170, (4-chlorophenyl)methyl N-{4-[(1S)-1-(3-methoxyazetidine-1-carbonylamino)ethyl]phenyl}carbamate]",1.41 µM,9.33 µM
"O=C(Nc1ccc(CC(=O)N2CCC[C@H](O)C2)cc1)OCc1ccc(Cl)cc1 [Compound 171, 4-chlorobenzyl (S)-(4-(2-(3-hydroxypiperidin-1-yl)-2-oxoethyl)phenyl)carbamate]",1.43 µM,9.75 µM
"O=C(Nc1ccc(Cc2cccnc2)cc1)OCc1ccc(Cl)cc1 [Compound 172, 4-chlorobenzyl (4-(pyridin-3-ylmethyl)phenyl)carbamate]",1.43 µM,3.54 µM
"Cc1cc(C(=O)NCc2ccc(NC(=O)OCc3ccc(Cl)cc3)cc2)ccn1 [Compound 173, (4-chlorophenyl)methyl N-(4-{[(2-methylpyridin-4-yl)formamido]methyl}phenyl)carbamate]",1.46 µM,4.39 µM
"COc1ccc(COC(=O)Nc2ccc(CN3CCOCC3=O)cc2)cc1 [Compound 174, (4-methoxyphenyl)methyl N-{4-[(3-oxomorpholin-4-yl)methyl]phenyl}carbamate]",1.47 µM,28 µM
"O=C(Nc1ccc(CNC(=O)c2cncnc2)cc1)OCc1ccc(Cl)cc1 [Compound 175, (4-chlorophenyl)methyl N-{4-[(pyrimidin-5-ylformamido)methyl]phenyl}carbamate]",1.47 µM,8.92 µM
"CCc1ncoc1C(=O)N(C)Cc1ccc(NC(=O)OCc2ccc(Cl)cc2)cc1 [Compound 176, (4-chlorophenyl)methyl N-(4-{[1-(4-ethyl-1,3-oxazol-5-yl)-N-methylformamido]methyl}phenyl)carbamate]",1.47 µM,4.56 µM
"CC(C)(O)CN1CCN(Cc2ccc(NC(=O)OCc3ccc(Cl)cc3)cc2)CC1 [Compound 177, 4-chlorobenzyl (4-((4-(2-hydroxy-2-methylpropyl)piperazin-1-yl)methyl)phenyl)carbamate]",1.49 µM,38.3 µM
